By MIC is commonly meant the least concentration at which growth counts as inhibited. The MBC is the smallest concentration meeting the test's criterion for killing.

One experiment relates to S. aureus ATCC 25923. Nature of the experiment: Broth microdilution MIC / MBC assay, S. aureus. The following applies: Staphylococcus aureus; for MIC: ATCC25923, 24 h, read-out: Antibacterial activity MIC; for MBC: ATCC25923, read-out: Antibacterial activity MBC. The format is cell-based. (Dilution methods test growth across graded concentrations, often in twofold steps.)
For the next experiment, the system named is E. coli ATCC 25922. Nature of the experiment: Broth microdilution MIC / MBC assay, E. coli. The format is cell-based. The following applies: Escherichia coli; for MIC: ATCC25922, 24 h, read-out: Antibacterial activity MIC; for MBC: ATCC25922, read-out: Antibacterial activity MBC.
A further experiment deals with S. aureus. Conditions: cited from earlier work.

In brackets after ≈: the same amount, converted by molar mass.

`O=C(O)/C=C/c1ccc(O)c(O)c1` [CA, caffeic acid]: the MIC in the experiment with S. aureus ATCC 25923 and in the experiment with E. coli ATCC 25922 was greater than 1110 µM throughout. The minimum bactericidal concentration (MBC) in the experiment on S. aureus ATCC 25923 and with E. coli ATCC 25922 was greater than 1110 µM throughout.
Regarding `CCn1cc(C(=O)O)c(=O)c2cc3c(cc21)OCO3` [OA, oxolinic acid], the MIC in the experiment with S. aureus ATCC 25923 came to 383 µM (≈ 100 µg/mL); in the experiment with E. coli ATCC 25922, 3 µM (≈ 0.784 µg/mL). In addition, the minimum bactericidal concentration (MBC) in the experiment on S. aureus ATCC 25923 was greater than 766 µM; with E. coli ATCC 25922 it was 6 µM (≈ 1.57 µg/mL).
Consider Fc-WRWRW, for which the “minimum inhibitory concentration (MIC)” value in the experiment with S. aureus was 7 µM.
As to WRWRWR, the “minimum inhibitory concentration (MIC)” value with S. aureus is 16 µM.

(Values after publication PMC9055962 (RSC Advances, 2020).)
